The values below are quoted from earlier work in patent publication US20070009923A1, “Use of bayesian networks for modeling cell signaling systems” (Massachusetts Institute of Technology, priority 2005, published 2007).

This data set concerns PKC isozymes.

For the compound `Cn1c2ccccc2c2c3c(c4c5ccccc5n(CCC#N)c4c21)CNC3=O` [G06976], the IC50 (in general, the point on the concentration scale where inhibition reaches its midpoint) is less than 8 nM.
